Results from US5876956A, “Methods for identification or purification of cells containing an enzymatic intracellular marker” (Johns Hopkins University School of Medicine, priority 1995, dated 1999).

Legend:
[1] = test system: Mouse CFU-GM; assay: Growth of mouse bone marrow progenitors isolated by DAAA and flow cytometry; type: cell-based
Experimental: (§1) In an attempt to examine cytosolic ALDH on a single-cell basis, leukemia cell lines and bone marrow cells were incubated with the fluorescent substrate DAAA, washed, and subjected to flow cytometry. The cell lines and plastic nonadherent mononuclear marrow cells were incubated with 50 μM DAAA at 10^6 cells/ml for 30 minutes at 37° C. After washing twice, some mononuclear marrow cells were treated with fluorescent monoclonal antibodies (Becton-Dickinson, Mountain View, Calif.), as previously described ([…] et al., Blood 74:1517, 1989) to study cytosolic ALDH activity of CD34^+, CD19^+, and CD5^+ marrow cells. […] Dansyl fluorescence was excited at both 351.1 nm and 363.8 nm using a multiline ultraviolet filter, and was detected at 521 nm. Cytosolic ALDH activity was estimated by the corrected mean fluorescence intensity (MFI) ([…] et al., Blood 75:1947, 1990; […], 1989, supra] of dansyl staining, which equals the mean fluorescence of unstained cells subtracted from the mean fluorescence of cells treated with DAAA. The mean fluorescence level represents the average channel value for a given sample on the flow cytometer. To confirm that cellular dansyl fluorescence was the result of the activity of cytosolic ALDH, L1210/CPA cells were incubated with 50 μM 4-(diethylamino) benzaldehyde (DEAB) for 15 minutes at 37° C. prior to the DAAA incubations to inhibit cytosolic ALDH activity. […]

[2] = test system: Mouse CFU-S (day 8); assay: Mouse CFU-S (day 8) of bone marrow cells isolated by DAAA and flow cytometry; type: in vivo
Experimental: as §1

[3] = test system: Human CFU-GM; assay: Growth of human bone marrow hematopoietic progenitors after DAAA and flow cytometry; type: cell-based
Experimental: In an attempt to examine cytosolic ALDH on a single-cell basis, leukemia cell lines and bone marrow cells were incubated with the fluorescent substrate DAAA, washed, and subjected to flow cytometry. The cell lines and plastic nonadherent mononuclear marrow cells were incubated with 50 μM DAAA at 10^6 cells/ml for 30 minutes at 37° C. After washing twice, some mononuclear marrow cells were treated with fluorescent monoclonal antibodies (Becton-Dickinson, Mountain View, Calif.), as previously described ([…] et al., Blood 74:1517, 1989) to study cytosolic ALDH activity of CD34^+, CD19^+, and CD5^+ marrow cells. The cells were sorted on a Epics 753 Dual Laser Flow Cytometer (Coulter Electronics, Hialeah, Fla.) equipped with two 90-5 water cooled argon lasers (Coherent, Palo Alto, Calif.). Dansyl fluorescence was excited at both 351.1 nm and 363.8 nm using a multiline ultraviolet filter, and was detected at 521 nm. Cytosolic ALDH activity was estimated by the corrected mean fluorescence intensity (MFI) ([…] et al., Blood 75:1947, 1990; […], 1989, supra] of dansyl staining, which equals the mean fluorescence of unstained cells subtracted from the mean fluorescence of cells treated with DAAA. The mean fluorescence level represents the average channel value for a given sample on the flow cytometer. To confirm that cellular dansyl fluorescence was the result of the activity of cytosolic ALDH, L1210/CPA cells were incubated with 50 μM 4-(diethylamino) benzaldehyde (DEAB) for 15 minutes at 37° C. prior to the DAAA incubations to inhibit cytosolic ALDH activity. […] (J. E. Russo et al., Biochem Pharmacol 37:1639, 1988) L1210/CPA cells were also incubated with 50 μM dansyl glycine (DG) alone (Sigma, St. Louis, Mo.) at 10^6 cells/ml for 30 minutes at 37° C. […] The data in Table 1 show the results of flow cytometry sorting of human and mouse marrow cells based on their fluorescence intensity after incubation with DAAA. The assays of progenitor content is also shown. Isolation of bone marrow cells with high ALDH expression by fluorescence sorting based on DAAA was enriched for hematopoietic progenitors capable of both in vitro and in vivo growth. The 5% of human bone marrow cells with highest dansyl fluorescence produced substantially more CFU-GM than the 5% of cells with lowest dansyl fluorescence (p=0.007, T-test). Similarly, using DAAA-derived fluorescence, it was possible to obtain a composition that is enriched for CFU-GM (p=0.03) and the more primitive CFU-S (p=0.01) from mouse bone marrow.

[4] = test system: cells; conditions: in vitro and in vivo; J. E. Russo et al., 1988; cited from earlier work
[5] = test system: cytosolic ALDH; conditions: J. E. Russo et al., Biochem Pharmacol 37:1639, 1988; cited from earlier work
[6] = test system: L1210/CPA cells; assay: Flow cytometry of dansyl fluorescence in cells incubated with the compound; type: cell-based, mouse; conditions: L1210/CPA cells incubated with 50 μM dansyl glycine alone, 10^6 cells/ml, 30 minutes, 37° C.; FIG. 1E
Experimental: In an attempt to examine cytosolic ALDH on a single-cell basis, leukemia cell lines and bone marrow cells were incubated with the fluorescent substrate DAAA, washed, and subjected to flow cytometry. The cell lines and plastic nonadherent mononuclear marrow cells were incubated with 50 μM DAAA at 10^6 cells/ml for 30 minutes at 37° C. After washing twice, some mononuclear marrow cells were treated with fluorescent monoclonal antibodies (Becton-Dickinson, Mountain View, Calif.), as previously described (M. B. Kastan et al., Blood 74:1517, 1989) to study cytosolic ALDH activity of CD34^+, CD19^+, and CD5^+ marrow cells. The cells were sorted on a Epics 753 Dual Laser Flow Cytometer (Coulter Electronics, Hialeah, Fla.) equipped with two 90-5 water cooled argon lasers (Coherent, Palo Alto, Calif.). Dansyl fluorescence was excited at both 351.1 nm and 363.8 nm using a multiline ultraviolet filter, and was detected at 521 nm. […]

[7] = 5% cells with the highest fluorescence after DAAA
[8] = 5% of cells with the lowest fluorescence after DAAA

CN(C)c1cccc2c(S(=O)(=O)NCC=O)cccc12 [DAAA, N-dansyl aminoacetaldehyde]
Colonies/10^5 cells, Mouse CFU-GM, Dansyl+ [1, 7]: 800 ± 185 Colonies/10^5 cells | Colonies/10^5 cells, Mouse CFU-GM, Dansyl- [1, 8]: 250 ± 60 Colonies/10^5 cells | Colonies/10^5 cells, Mouse CFU-S (day 8), Dansyl+ [2, 7]: 23.5 ± 1 Colonies/10^5 cells | Colonies/10^5 cells, Mouse CFU-S (day 8), Dansyl- [2, 8]: 7 ± 1.3 Colonies/10^5 cells | Colonies/10^5 cells, Human CFU-GM, Dansyl+ MNMC [3, 7]: 216 ± 13 Colonies/10^5 cells | Colonies/10^5 cells, Human CFU-GM, Dansyl- MNMC [3, 8]: 67 ± 20 Colonies/10^5 cells | harm to cells / progenitor growth after DAAA treatment ([3]; human bone marrow cells treated with DAAA and processed by flow cytometry (not sorted)): did not appear to harm cells | Colonies/10^5 cells, Human CFU-GM, Stained MNMC ([3]; mononuclear marrow cells incubated with DAAA and processed (but not sorted) by flow cytometry, unstained MNMC 163 ± 5): 155 ± 5 Colonies/10^5 cells

CCN(CC)c1ccc(C=O)cc1 [DEAB, 4-(diethylamino) benzaldehyde]
toxicity to cells [4]: nontoxic to cells in vitro and in vivo | inhibition of cytosolic ALDH [5]: specific, competitive inhibitor of cytosolic ALDH

CN(C)c1cccc2c(S(=O)(=O)NCC(=O)O)cccc12 [dansyl glycine]
dansyl fluorescence of cells [6]: no detectable fluorescence
